Data from PubChem BioAssay (NCI).
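GI50 is the concentration that inhibits growth by half. TGI is the concentration that stops growth completely.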

Columns and labels:
Assay in all cases: DTP human tumour cell line panel, 384-well format
[1] = system: BT-549 breast
[2] = system: PC-3 prostate
[3] = system: HCT-15 colon
[4] = system: NCI-H23 lung
[5] = system: T-47D breast
[6] = system: OVCAR-8 ovarian
[7] = system: OVCAR-3 ovarian
[8] = system: SK-MEL-5 melanoma
[9] = system: MOLT-4 leukemia
[10] = system: EKVX NSCLC
[11] = system: ACHN renal
[12] = system: HT29 colon
[13] = system: SR leukemia
[14] = system: NCI-H460 NSCLC
[15] = system: CCRF-CEM leukemia
[16] = system: CAKI-1 renal
[17] = system: NCI-H322M lung
[18] = system: HS 578T breast
[19] = system: UACC-62 melanoma
[20] = system: MALME-3M melanoma
[21] = system: A549 NSCLC
[22] = system: A498 renal
[23] = system: SNB-19 CNS
[24] = system: 786-0 renal
[25] = system: MDA-MB-435 melanoma
[26] = system: RPMI-8226 leukemia
[27] = system: SK-OV-3 ovarian
[28] = system: TK-10 renal
[29] = system: K-562 leukemia
[30] = system: HOP-62 NSCLC
[31] = system: COLO 205 colon
[32] = system: DU-145 prostate
[33] = system: UACC-257 melanoma
[34] = system: SF-539 CNS
[35] = system: RXF 393 renal
[36] = system: M14 melanoma
[37] = system: SN12C renal
[38] = system: SK-MEL-28 melanoma
[39] = system: SF-268 CNS
[40] = system: HCC-2998 colon
[41] = system: SW-620 colon
[42] = system: OVCAR-4 ovarian
[43] = system: UO-31 renal
[44] = system: MDA-MB-468 breast
[45] = system: SF-295 CNS
[46] = system: OVCAR-5 ovarian
[47] = system: MCF7 breast
[48] = system: MDA-MB-231 breast
[49] = system: LOX IMVI melanoma
[50] = system: KM12 colon
[51] = system: NCI-H226 lung
[52] = system: HOP-92 NSCLC
[53] = system: NCI-H522 lung
[54] = system: NCI/ADR-RES ovarian
[55] = system: SNB-75 CNS
[56] = system: HL-60(TB) leukemia
[57] = system: IGROV1 ovarian

C[C@@H](CO)NC(=O)c1cc(-c2ccc(Cl)cc2)nn(-c2cnn(C)c2)c1=O
GI50 [1]: 16.1 µM | TGI [1]: 33.8 µM | GI50 [2]: 24.4 µM | TGI [2]: 62.7 µM | GI50 [3]: 27.1 µM | TGI [3]: > 100 µM | GI50 [4]: 24.8 µM | TGI [4]: 60.7 µM | GI50 [5]: 26.9 µM | TGI [5]: 67.9 µM | GI50 [6]: 23.7 µM | TGI [6]: 95.9 µM | GI50 [7]: 22.6 µM | TGI [7]: 50.7 µM | GI50 [8]: 12.6 µM | TGI [8]: 25.3 µM | GI50 [9]: 1.87 µM | TGI [9]: 3.63 µM | GI50 [10]: 27.3 µM | TGI [10]: 77.9 µM | GI50 [11]: 15.5 µM | TGI [11]: 35.4 µM | GI50 [12]: 25.9 µM | TGI [12]: > 100 µM | GI50 [13]: 10.7 µM | TGI [13]: 22.7 µM | GI50 [14]: 13.8 µM | TGI [14]: 33.4 µM | GI50 [15]: 13.4 µM | TGI [15]: 29.7 µM | GI50 [16]: 17.7 µM | TGI [16]: 49.2 µM | GI50 [17]: 23.5 µM | TGI [17]: 64 µM | GI50 [18]: 17.2 µM | TGI [18]: 36.9 µM | GI50 [19]: 11.5 µM | TGI [19]: 23.7 µM | GI50 [20]: 13.4 µM | TGI [20]: 34.1 µM | GI50 [21]: 17.7 µM | TGI [21]: 37.5 µM | GI50 [22]: 14.4 µM | TGI [22]: 28.7 µM | GI50 [23]: 27.8 µM | TGI [23]: 88.5 µM | GI50 [24]: 17.1 µM | TGI [24]: 61.3 µM | GI50 [25]: 27.7 µM | TGI [25]: 80.1 µM | GI50 [26]: 13.8 µM | TGI [26]: 27 µM | GI50 [27]: 27.3 µM | TGI [27]: 72.7 µM | GI50 [28]: 16.7 µM | TGI [28]: 63.3 µM | GI50 [29]: 18.5 µM | TGI [29]: 34.3 µM | GI50 [30]: 17 µM | TGI [30]: 40 µM | GI50 [31]: 23.7 µM | TGI [31]: 87.2 µM | GI50 [32]: 16.9 µM | TGI [32]: 36 µM | GI50 [33]: 24.9 µM | TGI [33]: 40.1 µM | GI50 [34]: 19.4 µM | TGI [34]: 51.7 µM | GI50 [35]: 15.2 µM | TGI [35]: 53.4 µM | GI50 [36]: 27.1 µM | TGI [36]: 60.5 µM | GI50 [37]: 24.3 µM | TGI [37]: 78.6 µM | GI50 [38]: 21.9 µM | TGI [38]: 49.7 µM | GI50 [39]: 22.6 µM | TGI [39]: 70.7 µM | GI50 [40]: 23.5 µM | TGI [40]: 53.4 µM | GI50 [41]: 38.8 µM | TGI [41]: > 100 µM | GI50 [42]: 25.5 µM | TGI [42]: 69.6 µM | GI50 [43]: 27.1 µM | TGI [43]: > 100 µM | GI50 [44]: 16.7 µM | TGI [44]: 32 µM | GI50 [45]: 18.5 µM | TGI [45]: 41.2 µM | GI50 [46]: 32.2 µM | TGI [46]: > 100 µM | GI50 [47]: 15.8 µM | TGI [47]: 29.4 µM | GI50 [48]: 30 µM | TGI [48]: > 100 µM | GI50 [49]: 17.1 µM | TGI [49]: 30.9 µM | GI50 [50]: 35.2 µM | TGI [50]: > 100 µM | GI50 [51]: 16.8 µM | TGI [51]: 35 µM | GI50 [52]: 10.2 µM | TGI [52]: 43.7 µM | GI50 [53]: 16.9 µM | TGI [53]: 31.2 µM | GI50 [54]: 19.3 µM | TGI [54]: 44.4 µM | GI50 [55]: 25.8 µM | TGI [55]: 93.1 µM | GI50 [56]: 16.5 µM | TGI [56]: 30.1 µM | GI50 [57]: 18.3 µM | TGI [57]: 42.4 µM
